Laboratory results from article PMC10578308, “Design of Synthetic Surrogates for the Macrolactone Linker Motif in Coibamide A” (ACS Medicinal Chemistry Letters, 2023).
Positions of bridges follow the written chain, without caps; N, C: chain ends. Non-standard residues stand in square brackets, D forms with d. Residues, ends and D or L forms follow the SMILES beside them. *: point of attachment. NMe2Val = CC(C)[C@@H](C(=O)*)N(C)C; NMeI = CC[C@H](C)[C@H](NC)C(=O)O; NMeT = CN[C@H](C(=O)O)[C@@H](C)O; NMeL = CN[C@@H](CC(C)C)C(=O)O; NMeDap = CN[C@@H](CN)C(=O)O; dHiv = CC(C)[C@@H](O)C(=O)O; NMeS = CN[C@@H](CO)C(=O)O; NMeA = CN[C@@H](C)C(=O)O; dNMeA = CN[C@H](C)C(=O)O

Columns and labels:
[1] = tested on: U87-MG glioblastoma cells; assay: CellTiter-Glo viability assay, U87-MG cells; type: cell-based, human; settings: 50% viability after 72-hr incubation, n = 3
Description: (§1) Viability Assays Using U87 MG Cells, HCT116 Cells and normal human dermal fibroblasts.
Human U87-MG glioblastoma, HCT116 colon cancer cells and normal human dermal fibroblasts were from American Type Culture Collection (ATCC, Manasses, VA). U87-MG cells were cultured in Minimum Essential Medium (MEM) with Earl’s salts and L-glutamine (Corning Life Sciences), supplemented with 10% fetal bovine serum (FBS; Hyclone, Logan, UT) and 100 U/mL penicillin and […] streptomycin (1% penicillin/streptomycin). HCT116 cells were cultured in McCoy’s 5A medium supplemented with 10% FBS and 1% penicillin/streptomycin. […]
(§2) (#PCS-201-041) from ATCC. All cells were grown under standard conditions and maintained at 37 °C in an atmosphere of 5% CO2. For analysis of biological activity, cells were seeded at 3,000 cells/well into 96-well plates and allowed to attach overnight. On the day of the experiment, all cells were treated at the same time with the test compound or vehicle (0.1% DMSO) and plates returned to the cell culture incubator for 72 h. The viability of cells was measured at 72 h using a CellTiter-Glo® Luminescent Cell Viability Assay (Promega Corp) and luminescent signals measured using a multi-mode microplate reader (Biotek Synergy HT). Concentration-response relationships were analyzed using GraphPad Prism Software version 9.5.1 (GraphPad Software, Inc., San Diego, CA), and CC50 values derived using nonlinear regression analysis fit to a logistic equation. […]

[2] = tested on: HCT116 colon cancer cells; assay: CellTiter-Glo viability assay, HCT116 cells; type: cell-based, human; settings: 50% viability after 72-hr incubation, n = 3
Description: as §1
(§3) Human U87-MG glioblastoma, HCT116 colon cancer cells and normal human dermal fibroblasts were from American Type Culture Collection (ATCC, Manasses, VA). […]
[…] streptomycin (1% penicillin/streptomycin). HCT116 cells were cultured in McCoy’s 5A medium supplemented with 10% FBS and 1% penicillin/streptomycin. […]
as §2

[3] = tested on: normal human dermal fibroblasts (HDFs); assay: CellTiter-Glo viability assay, normal human dermal fibroblasts; type: cell-based; settings: 50% viability after 72-hr incubation, n = 3, read-out: HDF CC50
Description: as §1, §3
as §2, with “Human dermal fibroblasts were cultured in Fibroblast Basal Medium (#PCS-201-030) supplemented with Fibroblast Growth Kit (#PCS-201-041)” for “(#PCS-201-041)”

[4] = target: GLuc secretion (model Sec61 substrate) from U87-MG-GLuc cells (Homo sapiens, UniProt P61619); assay: Gaussia luciferase (GLuc) secretory assay; type: cell-based; settings: 18-h incubation, n = 3, read-out: IC50 (50% inhibition of GLuc expression)
GLuc secretion (model Sec61 substrate) from U87-MG-GLuc cells, sequence (P61619 whole entry): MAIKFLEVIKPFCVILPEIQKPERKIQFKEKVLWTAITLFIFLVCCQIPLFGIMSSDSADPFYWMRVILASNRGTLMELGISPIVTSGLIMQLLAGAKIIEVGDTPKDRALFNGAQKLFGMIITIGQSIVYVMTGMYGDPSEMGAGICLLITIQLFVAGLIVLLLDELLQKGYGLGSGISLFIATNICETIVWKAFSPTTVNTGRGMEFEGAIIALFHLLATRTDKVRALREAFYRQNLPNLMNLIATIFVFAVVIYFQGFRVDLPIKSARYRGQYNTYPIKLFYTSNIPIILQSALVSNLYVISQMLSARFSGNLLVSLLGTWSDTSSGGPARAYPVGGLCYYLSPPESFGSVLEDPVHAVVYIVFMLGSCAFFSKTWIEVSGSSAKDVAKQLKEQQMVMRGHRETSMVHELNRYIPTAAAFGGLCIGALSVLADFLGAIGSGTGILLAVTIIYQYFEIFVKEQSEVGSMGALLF
Description: To investigate the mechanistic basis for cytotoxicity, all CbA derivatives were evaluated for their ability to inhibit expression of a model Sec61 substrate using U87-MG cells engineered to express a naturally secreted reporter protein, Gaussia luciferase (GLuc) (Tables 1 and 2). For these studies, U87-MG-GLuc cells were exposed to increasing concentrations of each peptide, or vehicle, for 18 h, and the cell culture medium was assayed for the presence of GLuc. […]
Gaussia Luciferase (GLuc) Secretory Assay
The generation of U87-MG cells expressing the secreted reporter Gaussia luciferase (GLuc) has been described previously.S5,S6 U87-MG-GLuc cells were cultured in Minimum Essential Medium (MEM) with Earl’s salts and L-glutamine (Corning Life Sciences), supplemented with 10% fetal bovine serum […]
(FBS; Hyclone, Logan, UT) and 100 U/mL penicillin and […] streptomycin (1% penicillin/streptomycin). All cells were grown under standard conditions and maintained at 37 °C in an atmosphere of 5% CO2. For analysis of biological activity, cells were seeded at 3,000 cells/well into 96-well plates and allowed to attach overnight. On the day of the experiment, all cells were treated at the same time with the test compound or vehicle (0.1% DMSO) and plates returned to the cell culture

[5] = tested on: human A549 lung cancer cells; assay: MTS antiproliferative/cell viability assay in A549 cells; type: cell-based; settings: for CC50: human A549 lung cancer cells, MTS, 72 h, n = 3, read-out: CC50 (concentration for a 50% decrease in viability)
Description: Next, we synthesized CbA derivatives 3a,b by Fmoc-based SPPS using Fmoc/Alloc protected lysine derivatives 4a,b, according to the synthetic procedure for CbA mimetics in our previous study (Scheme S2).[21] The bioactivity profile of the resulting peptides 3a,b was investigated by using a standard MTS antiproliferative/cell viability assay to assess the cytotoxic potential of CbA analogues against human A549 lung cancer cells (Table 1).
10% (v/v) fetal bovine serum at 37 °C in a 5% CO2-incubator. Viability assays using A549 cells were performed in 96-well plates (BD Falcon). A549 cells were seeded at 1000 cells/well in 90 μL of culture media, respectively, and were cultured for 24 h. Chemical compounds in DMSO were diluted 50-fold with the culture medium in advance. 30 μL of the chemical diluents were added. The final volume of DMSO in the medium was equal to 0.5% (v/v). The cells under chemical treatment were incubated for a further 72 h. The wells in the plates were washed twice with the cultured medium without phenol- […]
After 1-hour incubation with 100 μL of the medium, the cell culture in each well was supplemented with 20 μL of the MTS reagent (Promega), followed by incubation for additional 40 min. Absorbance at 490 nm of each well was measured using a Wallac 1420 ARVO SX multilabel counter (Perkin Elmer).
Three experiments were performed per condition and the averages of inhibition rates in each condition were evaluated to determine IC50 values using the GraphPad Prism software. […]

[6] = tested on: endogenous VEGF-A secreted from human SF-268 glioblastoma cells; assay: Detection of secreted VEGF-A by ELISA; type: cell-based; settings: 24 h, Figure S5
[7] = CellTiter-Glo viability assay, normal human dermal fibroblasts; type: cell-based; settings: normal human dermal fibroblasts (HDFs), 50% viability after 72-hr incubation, n = 3, read-out: HDF CC50
Description: as §1, §3
as §2, with “Human dermal fibroblasts were cultured in Fibroblast Basal Medium (#PCS-201-030) supplemented with Fibroblast Growth Kit (#PCS-201-041)” for “(#PCS-201-041)”

SMILES | CC50 [1] [nM] | CC50 [2] [nM] | CC50 [3] [nM] | IC50 [4] [nM] | CC50 [5] [nM] | expression of endogenous secreted VEGF-A (in words) [6] | CC50 at 72 h [7] [nM] | fold more potent (cytotoxicity) than 1a ([5]; A549 cells, CC50 compared with 1a) | fold more potent (cytotoxicity) than 3a ([5]; A549 cells, CC50 compared with 3a) [fold]
CC[C@H](C)[C@H]1C(=O)N[C@@H](C)C(=O)N(C)[C@@H](CC(C)C)C(=O)N[C@@H](Cc2ccc(OC)cc2)C(=O)N(C)[C@H](C)C(=O)N[C@H](C)[C@H](N(C)C(=O)[C@H](CC(C)C)N(C)C(=O)[C@H](COC)N(C)C(=O)[C@H](OC(=O)[C@H](C(C)C)N(C)C)C(C)C)C(=O)N(C)[C@@H](COC)C(=O)N1C [Peptide 16b] | 2.2 ± 0.4 | 3.4 ± 0.6 | 3.9 ± 1.5 | 0.04 ± 0.02 | 1.3 ± 0.3 |  |  |  | 
CC[C@H](C)[C@H]1C(=O)N[C@@H](C)C(=O)N(C)[C@@H](CC(C)C)C(=O)N[C@@H](Cc2ccc(OC)cc2)C(=O)N(C)[C@H](C)CC[C@H](C)[C@H](N(C)C(=O)[C@H](CC(C)C)N(C)C(=O)[C@H](C)N(C)C(=O)[C@H](OC(=O)[C@H](C(C)C)N(C)C)C(C)C)C(=O)N(C)[C@@H](C)C(=O)N1C [Peptide 3a] | 56 ± 2 | 121 ± 23 | 213 ± 29 | 18 ± 1 | 41 ± 4 | statistically significant and concentration-dependent decreases |  |  | 
CC[C@H](C)[C@H]1C(=O)N[C@@H](C)C(=O)N(C)[C@@H](CC(C)C)C(=O)N[C@@H](Cc2ccc(OC)cc2)C(=O)N(C)[C@H](C)C(=O)N(C)C[C@H](N(C)C(=O)[C@H](CC(C)C)N(C)C(=O)[C@H](C)N(C)C(=O)[C@H](OC(=O)[C@H](C(C)C)N(C)C)C(C)C)C(=O)N(C)[C@@H](C)C(=O)N1C [Peptide 17b] |  |  |  |  | 6500 |  |  |  | 
CC[C@H](C)[C@H]1C(=O)N[C@@H](C)C(=O)N(C)[C@@H](CC(C)C)C(=O)N[C@@H](Cc2ccc(OC)cc2)C(=O)N(C)[C@H](C)C(=O)O[C@H](C)[C@H](N(C)C(=O)[C@H](CC(C)C)N(C)C(=O)[C@H](COC)N(C)C(=O)[C@H](OC(=O)[C@H](C(C)C)N(C)C)C(C)C)C(=O)N(C)[C@@H](COC)C(=O)N1C [Coibamide A (1a), coibamide A] (NMe2Val-[dHiv][NMeS](Me)[NMeL][NMeT][NMeS](Me)[NMeI]A[NMeL]Y(Me)[dNMeA]; ester 4-C) | 50 ± 6 | 2.7 ± 0.5 |  | 1.1 ± 0.3 | 1.5 ± 0.4 |  | 6.7 ± 2.1 |  | 
CC[C@H](C)[C@H]1C(=O)N[C@@H](C)C(=O)N(C)[C@@H](CC(C)C)C(=O)N[C@@H](Cc2ccc(-c3ccccc3)cc2)C(=O)N(C)[C@H](C)C(=O)N[C@H](C)[C@H](N(C)C(=O)[C@H](CC(C)C)N(C)C(=O)[C@H](COC)N(C)C(=O)[C@H](OC(=O)[C@H](C(C)C)N(C)C)C(C)C)C(=O)N(C)[C@@H](COC)C(=O)N1C [Peptide 16c] | 0.6 ± 0.2 | 0.8 ± 0.23 | 0.38 ± 0.08 | 0.08 ± 0.03 | 0.27 ± 0.1 |  |  | approximately 5 fold | 
CC[C@H](C)[C@H]1C(=O)N[C@@H](C)C(=O)N(C)[C@@H](CC(C)C)C(=O)N[C@@H](Cc2ccc(OC)cc2)C(=O)N(C)[C@H](C)C(=O)NC[C@H](N(C)C(=O)[C@H](CC(C)C)N(C)C(=O)[C@H](C)N(C)C(=O)[C@H](OC(=O)[C@H](C(C)C)N(C)C)C(C)C)C(=O)N(C)[C@@H](C)C(=O)N1C [Peptide 17a] (NMe2Val-[dHiv][NMeA][NMeL][NMeDap][NMeA][NMeI]A[NMeL]Y(Me)[dNMeA]; lactam 4-C) | 48 ± 3 | 60 ± 4 | 123 ± 25 | 30 ± 3.9 |  |  |  |  | 
CC[C@H](C)[C@H]1C(=O)N[C@@H](C)C(=O)N(C)[C@@H](CC(C)C)C(=O)N[C@@H](Cc2ccc(OC)cc2)C(=O)N(C)[C@H](C)C(=O)N[C@H](C)[C@H](N(C)C(=O)[C@H](CC(C)C)N(C)C(=O)[C@H](C)N(C)C(=O)[C@H](OC(=O)[C@H](C(C)C)N(C)C)C(C)C)C(=O)N(C)[C@@H](C)C(=O)N1C [Peptide 16a] | 3.9 ± 0.5 | 4.5 ± 0.5 | 4.6 ± 1.4 | 0.71 ± 0.09 | 3.6 ± 1.4 |  |  |  | 
CC[C@H](C)[C@H]1C(=O)N[C@@H](C)C(=O)N(C)[C@@H](CC(C)C)C(=O)N[C@@H](Cc2ccc(OC)cc2)C(=O)N(C)[C@H](C)/C=C/[C@H](C)[C@H](N(C)C(=O)[C@H](CC(C)C)N(C)C(=O)[C@H](C)N(C)C(=O)[C@H](OC(=O)[C@H](C(C)C)N(C)C)C(C)C)C(=O)N(C)[C@@H](C)C(=O)N1C [Peptide 3b] | 6.2 ± 0.1 | 11 ± 1 | 8.3 ± 2.1 | 13 ± 2 | 2.6 ± 0.4 |  |  |  | 10
CC[C@H](C)[C@H]1C(=O)N[C@@H](C)C(=O)N(C)[C@@H](CC(C)C)C(=O)N[C@@H](Cc2ccc(OC)cc2)C(=O)N(C)[C@H](C)C(=O)O[C@H](C)[C@H](N(C)C(=O)[C@H](CC(C)C)N(C)C(=O)[C@H](C)N(C)C(=O)[C@H](OC(=O)[C@H](C(C)C)N(C)C)C(C)C)C(=O)N(C)[C@@H](C)C(=O)N1C [Peptide 1b, reference compound] (NMe2Val-[dHiv][NMeA][NMeL][NMeT][NMeA][NMeI]A[NMeL]Y(Me)[dNMeA]; ester 4-C) | 2.6 ± 0.1 | 3.9 ± 0.5 | 4.6 ± 1.5 | 2 ± 0.3 | 3.1 ± 0.8 |  |  |  | 
